The target in assay [1] is T1, FIPV M^pro (Feline coronavirus, UniProt Q98VG9). Nature of the assay: FRET-based cleavage assay with purified FIPV Mpro (Ki and IC50 determination). The assay is classed as biochemical, FIPV WSU-79/1146. As to the method:
A fluorescence resonance energy transfer (FRET)–based cleavage assay was performed using a synthetic peptide fluorescent substrate containing the cleavage site of FIPV M^pro [Abz-SVTLQ↓SG-Tyr (NO2)-R] as described previously ([Vuong et al., 2020]; [Vuong et al., 2021]). […] The enzymatic reactions using 1–500 μM of FRET substrate in activity buffer (25 mM Bis-Tris, 1 mM DTT, pH 7.0) were started with the addition of protease. For IC50 determination, 100 nM of FIPV M^pro was incubated with an inhibitor concentration range of 0.25 nM–100 µM in activity buffer. The reaction was started with 40 µM of FRET substrate. The fluorescence signal of the FRET peptide cleavage product was monitored at an emission wavelength of 420 nm with excitation at 320 nm, using a Cytation 5 Imaging Multi-Mode Reader (BioTek) for 7 min at 37°C. The kinetic data were analyzed using computer-fit calculation (Prism 9.0, GraphPad Software). […] The experiments were performed in triplicate.

For the next assay, the system named is SARS-CoV-2 M^pro. As to conditions: read-out: SARS-CoV-2 M^pro IC50; mean ± SEM, n = 3; ref Vuong et al. (2021); cited from earlier work.
The target in another assay is SARS-CoV M^pro. As to conditions: ref Arutyunova et al., 2021; cited from earlier work.
Assay [2] deals with T1, FIPV M^pro. On the set-up: method as in Kim et al., 2012. As to conditions: ref Kim et al., 2012; cited from earlier work.
For another assay, the system named is FIP virus (FIPV). Also noted: method as in Kim et al., 2016; Pedersen et al., 2018. As to conditions: experimentally induced and naturally occurring FIP; ref Kim et al., 2016; Pedersen et al., 2018; cited from earlier work.
In assay [3] the target is Feline infectious peritonitis virus main protease (FIPV M^pro, FIPV WSU-79/1146) (feline infectious peritonitis virus (FIPV WSU-79/1146)). Nature of the assay: crystal structure; FIPV M^pro at 10 mg/ml incubated with 5x molar excess of GC373 or GC376 (4°C, 2 h), sitting drop, room temperature; GC376: 2.0 M ammonium sulfate, 0.1 M Bis-Tris pH 5.5; GC373: 0.2 M calcium chloride, 0.1 M MES, 20% PEG 6000, pH 6.0.

Here are results for ten molecules from PMC8907848 (Frontiers in Chemistry, 2022).

Read-outs that look alike come from different tables or passages of the source.

T1 sequence (Q98VG9 2904-3205): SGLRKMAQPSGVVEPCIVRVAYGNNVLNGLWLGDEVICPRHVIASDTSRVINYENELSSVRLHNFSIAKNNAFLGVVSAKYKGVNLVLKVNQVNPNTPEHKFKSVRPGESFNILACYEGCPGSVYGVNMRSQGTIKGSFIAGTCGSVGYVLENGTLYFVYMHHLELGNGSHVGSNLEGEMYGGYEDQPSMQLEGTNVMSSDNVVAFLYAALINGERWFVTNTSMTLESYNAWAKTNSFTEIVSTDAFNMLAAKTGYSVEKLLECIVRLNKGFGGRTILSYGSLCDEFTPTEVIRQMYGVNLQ

By IC50 is commonly meant the midpoint of a concentration-inhibition curve. As for `O=C[C@H](C[C@@H]1CCNC1=O)NC(=O)[C@H](CC1CC1)NC(=O)OCc1ccccc1` [1a], the IC50 at FIPV M^pro [1] is 100 ± 70 nM. For `CC(C)C[C@H](NC(=O)OCc1cccc(F)c1)C(=O)N[C@H](C=O)C[C@@H]1CCNC1=O` [1d], the values for the 50% inhibitory concentration (IC50) against FIPV M^pro [1] and in the assay on SARS-CoV-2 M^pro were 70 ± 10 nM and 130 ± 40 nM, respectively.

As for `CC(C)C[C@H](NC(=O)OCCc1cccc(Cl)c1)C(=O)N[C@H](C=O)C[C@@H]1CCNC1=O` [1e], the values for the concentration for half-maximal inhibition (IC50) against FIPV M^pro [1] and in the assay on SARS-CoV-2 M^pro were 130 ± 20 nM and 150 ± 50 nM, respectively.

Regarding `CC(C)C[C@H](NC(=O)O[C@@H](C)c1ccccc1)C(=O)N[C@H](C=O)C[C@@H]1CCNC1=O` [1g], the results for the IC50 against FIPV M^pro [1] and in the assay with SARS-CoV-2 M^pro were 430 ± 90 nM and 270 ± 90 nM, respectively. Consider `O=C(N[C@@H](CC1CC1)C(=O)N[C@@H](C[C@@H]1CCNC1=O)C(O)S(=O)(=O)O)OCc1cccc(F)c1` (some centres unmarked) [2c], for which the values for the IC50 against FIPV M^pro [1] and in the assay with SARS-CoV-2 M^pro were 30 ± 10 nM and 70 ± 10 nM, respectively. For the molecule `O=C(N[C@@H](CC1CC1)C(=O)N[C@@H](C[C@@H]1CCNC1=O)C(O)S(=O)(=O)O)OCCc1cccc(Cl)c1` (some centres unmarked) [2d], the IC50 against FIPV M^pro [1] was 50 ± 20 nM. Still for that read-out and setting: as for `COc1cccc2[nH]c(C(=O)N[C@@H](CC3CC3)C(=O)N[C@@H](C[C@@H]3CCNC3=O)C(O)S(=O)(=O)O)cc12` (some centres unmarked) [2e], the figure is 60 ± 20 nM. As for `CC(C)CC(NC(=O)OCc1ccccc1)C(=O)NC(C=O)CC1CCNC1=O` (centres unmarked) [GC373], the “Ki against SARS-CoV Mpro (in words)” value on SARS-CoV M^pro is “nanomolar range”. Usually Ki stands for the dissociation constant of the complex between target and ligand, obtained from inhibition or displacement. Turning to `CC(C)CC(NC(=O)OCc1ccccc1)C(=O)NC(CC1CCNC1=O)C(O)S(=O)(=O)O` (centres unmarked) [GC376, reference compound], at FIPV M^pro [1] (100 nM FIPV Mpro, 40 µM FRET substrate, 37°C, mean ± SEM, n = 3, read-out: FIPV M^pro IC50), the IC50 came to 130 ± 20 nM. Moreover, the Ki at FIPV M^pro [1] (read-out: Calculated Ki) was 2.1 nM. Besides, on FIPV M^pro [2], the “IC50 against FIPV Mpro (in words)” value is reported as “sub-micromolar”. The “Effect on progression of FIP in cats” value with FIP virus (FIPV) was “successful in reversing the progression”. As a reminder, the stoichiometry N is a count of units in the complex or per binding partner. For the molecule “Feline infectious peritonitis virus main protease (FIPV M^pro, FIPV WSU-79/1146) (enzyme)”, the stoichiometry N in assay [3] turned out to be 2.
